# Reference: PMC7558026, “Exploring and applying the substrate promiscuity of a C-glycosyltransferase in the chemo-enzymatic synthesis of bioactive C-glycosides” (Nature Communications, 2020)
# Experiments:
# Format in all cases: biochemical, Aloe barbadensis
# [1] = target: T1, AbCGT (Aloe vera, UniProt A0A7G9P699); experiment: Kinetic parameters of AbCGT (wild type); settings: acceptor varied, saturating UDP-Glc, pH 7.4, 30 °C
# Procedure: The reactions terminated by the addition of 200 μL of ice-cold methanol. Subsequently, samples were centrifuged at 15,000 × g for 30 min to collect the supernatant, and aliquots were analyzed by HPLC as described above. All experiments were performed in triplicate. The value of Km was calculated with the method of Lineweaver–Burk plot.
# [2] = tested on: AbCGT; experiment: Effects of pH, temperature and divalent metal ions on AbCGT activity (phloretin 17 + UDP-Glc)
# [3] = target: T1, AbCGT; experiment: Glycosyltransferase activity assay, purified AbCGT (wild type) with aglycon acceptors and UDP-Glc; settings: aglycon acceptor with UDP-Glc, pH 7.4, 30 °C, up to 12 h; Reaction-1 to -3
# [4] = tested on: AbCGT; experiment: Effects of pH, temperature and divalent metal ions on AbCGT activity (phloretin 17 + UDP-Glc); remark: listed apart in the source
# Procedure: To assay for the optimal reaction temperature, the reaction mixtures were incubated at pH 11.0 and different temperatures (15–60 °C). To test the necessity of divalent metal ions for AbCGT, BaCl2, CaCl2, CoCl2, CuCl2, FeCl2, MgCl2, MnCl2, ZnCl2, and EDTA were used individually at a final concentration of 5 mM. […] For quantification, three parallel assays were routinely carried out.
# [5] = pH 5.0, citric acid-sodium citrate buffer, reaction-1
# [6] = pH 6.0, Na2HPO4-NaH2PO4 buffer, reaction-2
# [7] = pH 5.0, citric acid-sodium citrate buffer, reaction-2
# [8] = pH 5.0, citric acid-sodium citrate buffer, reaction-3
# [9] = pH 6.0, Na2HPO4-NaH2PO4 buffer, reaction-1
# [10] = pH 6.0, Na2HPO4-NaH2PO4 buffer, reaction-3
# [11] = pH 6.0, citric acid-sodium citrate buffer, reaction-1
# [12] = pH 6.0, citric acid-sodium citrate buffer, reaction-2
# [13] = pH 6.0, citric acid-sodium citrate buffer, reaction-3
# [14] = pH 7.0, Na2HPO4-NaH2PO4 buffer, reaction-1
# [15] = pH 7.0, Na2HPO4-NaH2PO4 buffer, reaction-2
# [16] = pH 7.0, Na2HPO4-NaH2PO4 buffer, reaction-3
# [17] = pH 7.0, Tris-HCl buffer, reaction-1
# [18] = pH 7.0, Tris-HCl buffer, reaction-2
# [19] = pH 7.0, Tris-HCl buffer, reaction-3
# [20] = pH 8.0, Tris-HCl buffer, reaction-1
# [21] = pH 8.0, Tris-HCl buffer, reaction-2
# [22] = pH 8.0, Tris-HCl buffer, reaction-3
# [23] = pH 9.0, Na2CO3-NaHCO3 buffer, reaction-1
# [24] = pH 9.0, Na2CO3-NaHCO3 buffer, reaction-2
# [25] = pH 9.0, Na2CO3-NaHCO3 buffer, reaction-3
# [26] = pH 9.0, Tris-HCl buffer, reaction-1
# [27] = pH 9.0, Tris-HCl buffer, reaction-2
# [28] = pH 9.0, Tris-HCl buffer, reaction-3
# [29] = pH 10.0, Na2CO3-NaHCO3 buffer, reaction-1
# [30] = pH 10.0, Na2CO3-NaHCO3 buffer, reaction-2
# [31] = pH 10.0, Na2CO3-NaHCO3 buffer, reaction-3
# [32] = pH 11.0, Na2CO3-NaHCO3 buffer, reaction-1
# [33] = pH 11.0, Na2CO3-NaHCO3 buffer, reaction-2
# [34] = pH 11.0, Na2CO3-NaHCO3 buffer, reaction-3
# [35] = pH 12.0, Na2CO3-NaHCO3 buffer, reaction-1
# [36] = pH 12.0, Na2CO3-NaHCO3 buffer, reaction-2
# [37] = pH 12.0, Na2CO3-NaHCO3 buffer, reaction-3
# T1 sequence (A0A7G9P699 entry or part of it): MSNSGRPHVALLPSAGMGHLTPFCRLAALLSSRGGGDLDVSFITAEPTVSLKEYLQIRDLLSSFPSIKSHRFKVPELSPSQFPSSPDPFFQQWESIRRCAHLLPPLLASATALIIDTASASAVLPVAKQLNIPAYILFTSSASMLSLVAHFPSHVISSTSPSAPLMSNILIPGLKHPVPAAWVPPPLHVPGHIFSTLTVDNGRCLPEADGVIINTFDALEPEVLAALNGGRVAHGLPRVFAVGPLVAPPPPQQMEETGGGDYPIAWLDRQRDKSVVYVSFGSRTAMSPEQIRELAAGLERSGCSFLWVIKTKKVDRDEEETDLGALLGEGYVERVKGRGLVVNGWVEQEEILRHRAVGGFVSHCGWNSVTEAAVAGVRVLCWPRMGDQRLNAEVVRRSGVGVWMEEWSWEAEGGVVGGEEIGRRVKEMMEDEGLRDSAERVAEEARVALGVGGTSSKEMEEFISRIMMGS
smiles,measurement,setting,value
"O=C(CCc1ccc(O)cc1)c1c(O)cc(O)cc1O [Compound 17, phloretin]",Kcat,[1],120 min⁻¹
same,relative activity,[2]; [5],0.2
same,relative activity,[2]; [6],25.2
same,"conversion rates, O,N,S-glycosylation",[3],0%
same,"conversion rates, di-C-glycosylation",[3],100%
same,"conversion rates, mono-C-glycosylation",[3],0%
same,conversion rates of Phloretin,"[4]; Temperature 15, reaction-1",11
same,relative activity,"[4]; Temperature 15, reaction-1",11.0
same,conversion rates of Phloretin,"[4]; Temperature 15, reaction-2",10.9
same,relative activity,"[4]; Temperature 15, reaction-2",10.9
same,conversion rates of Phloretin,"[4]; Temperature 15, reaction-3",12.9
same,relative activity,"[4]; Temperature 15, reaction-3",12.9
same,conversion rates of Phloretin,"[4]; Temperature 25, reaction-1",18.8
same,relative activity,"[4]; Temperature 25, reaction-1",18.8
same,conversion rates of Phloretin,"[4]; Temperature 25, reaction-2",21.4
same,relative activity,"[4]; Temperature 25, reaction-2",21.4
same,conversion rates of Phloretin,"[4]; Temperature 25, reaction-3",24.7
same,relative activity,"[4]; Temperature 25, reaction-3",24.7
same,conversion rates of Phloretin,"[4]; Temperature 30, reaction-1",39.8
same,relative activity,"[4]; Temperature 30, reaction-1",39.9
same,conversion rates of Phloretin,"[4]; Temperature 30, reaction-2",36.9
same,relative activity,"[4]; Temperature 30, reaction-2",37.0
same,conversion rates of Phloretin,"[4]; Temperature 30, reaction-3",38.5
same,relative activity,"[4]; Temperature 30, reaction-3",38.6
same,conversion rates of Phloretin,"[4]; Temperature 35, reaction-1",64.8
same,relative activity,"[4]; Temperature 35, reaction-1",64.9
same,conversion rates of Phloretin,"[4]; Temperature 35, reaction-2",57.8
same,relative activity,"[4]; Temperature 35, reaction-2",57.9
same,conversion rates of Phloretin,"[4]; Temperature 35, reaction-3",60.7
same,relative activity,"[4]; Temperature 35, reaction-3",60.8
same,conversion rates of Phloretin,"[4]; Temperature 40, reaction-1",78.1
same,relative activity,"[4]; Temperature 40, reaction-1",78.3
same,conversion rates of Phloretin,"[4]; Temperature 40, reaction-2",81
same,relative activity,"[4]; Temperature 40, reaction-2",81.2
same,conversion rates of Phloretin,"[4]; Temperature 40, reaction-3",73.2
same,relative activity,"[4]; Temperature 40, reaction-3",73.3
same,conversion rates of Phloretin,"[4]; Temperature 45, reaction-1",99.4
same,relative activity,"[4]; Temperature 45, reaction-1",99.6
same,conversion rates of Phloretin,"[4]; Temperature 45, reaction-2",100
same,relative activity,"[4]; Temperature 45, reaction-2",100.2
same,conversion rates of Phloretin,"[4]; Temperature 45, reaction-3",100
same,relative activity,"[4]; Temperature 45, reaction-3",100.2
same,conversion rates of Phloretin,"[4]; Temperature 50, reaction-1",97.7
same,relative activity,"[4]; Temperature 50, reaction-1",97.9
same,conversion rates of Phloretin,"[4]; Temperature 50, reaction-2",98
same,relative activity,"[4]; Temperature 50, reaction-2",98.2
same,conversion rates of Phloretin,"[4]; Temperature 50, reaction-3",99.1
same,relative activity,"[4]; Temperature 50, reaction-3",99.3
same,conversion rates of Phloretin,"[4]; Temperature 55, reaction-1",96.5
same,relative activity,"[4]; Temperature 55, reaction-1",96.7
same,conversion rates of Phloretin,"[4]; Temperature 55, reaction-2",95.7
same,relative activity,"[4]; Temperature 55, reaction-2",95.9
same,conversion rates of Phloretin,"[4]; Temperature 55, reaction-3",93.3
same,relative activity,"[4]; Temperature 55, reaction-3",93.5
same,conversion rates of Phloretin,"[4]; Temperature 60, reaction-1",75.4
same,relative activity,"[4]; Temperature 60, reaction-1",75.6
same,conversion rates of Phloretin,"[4]; Temperature 60, reaction-2",85.7
same,relative activity,"[4]; Temperature 60, reaction-2",85.9
same,conversion rates of Phloretin,"[4]; Temperature 60, reaction-3",80
same,relative activity,"[4]; Temperature 60, reaction-3",80.2
same,conversion rates of Phloretin,[4]; [5],0.2
same,conversion rates of Phloretin,[4]; [7],0.1
same,relative activity,[4]; [7],0.1
same,conversion rates of Phloretin,[4]; [8],0.2
same,relative activity,[4]; [8],0.2
same,conversion rates of Phloretin,[4]; [9],23.7
same,relative activity,[4]; [9],23.8
same,conversion rates of Phloretin,[4]; [6],25.1
same,conversion rates of Phloretin,[4]; [10],25.4
same,relative activity,[4]; [10],25.5
same,conversion rates of Phloretin,[4]; [11],11.7
same,relative activity,[4]; [11],11.8
same,conversion rates of Phloretin,[4]; [12],15.2
same,relative activity,[4]; [12],15.3
same,conversion rates of Phloretin,[4]; [13],13
same,relative activity,[4]; [13],13.1
same,conversion rates of Phloretin,[4]; [14],30.8
same,relative activity,[4]; [14],30.9
same,conversion rates of Phloretin,[4]; [15],28
same,relative activity,[4]; [15],28.1
same,conversion rates of Phloretin,[4]; [16],30.7
same,relative activity,[4]; [16],30.8
same,conversion rates of Phloretin,[4]; [17],34.2
same,relative activity,[4]; [17],34.4
same,conversion rates of Phloretin,[4]; [18],33.6
same,relative activity,[4]; [18],33.8
same,conversion rates of Phloretin,[4]; [19],34.8
same,relative activity,[4]; [19],35.0
same,conversion rates of Phloretin,[4]; [20],35
same,relative activity,[4]; [20],35.2
same,conversion rates of Phloretin,[4]; [21],36.1
same,relative activity,[4]; [21],36.3
same,conversion rates of Phloretin,[4]; [22],35.4
same,relative activity,[4]; [22],35.6
same,conversion rates of Phloretin,[4]; [23],53
same,relative activity,[4]; [23],53.2
same,conversion rates of Phloretin,[4]; [24],52.2
same,relative activity,[4]; [24],52.4
same,conversion rates of Phloretin,[4]; [25],53.9
same,relative activity,[4]; [25],54.2
same,conversion rates of Phloretin,[4]; [26],45.9
same,relative activity,[4]; [26],46.1
same,conversion rates of Phloretin,[4]; [27],46.5
same,relative activity,[4]; [27],46.7
same,conversion rates of Phloretin,[4]; [28],53
same,relative activity,[4]; [28],53.2
same,conversion rates of Phloretin,[4]; [29],89.2
same,relative activity,[4]; [29],89.6
same,conversion rates of Phloretin,[4]; [30],93
same,relative activity,[4]; [30],93.4
same,conversion rates of Phloretin,[4]; [31],92.7
same,relative activity,[4]; [31],93.1
same,conversion rates of Phloretin,[4]; [32],99.2
same,relative activity,[4]; [32],99.7
same,conversion rates of Phloretin,[4]; [33],100
same,relative activity,[4]; [33],100.5
same,conversion rates of Phloretin,[4]; [34],99.4
same,relative activity,[4]; [34],99.9
same,conversion rates of Phloretin,[4]; [35],0
same,relative activity,[4]; [35],0.0
same,conversion rates of Phloretin,[4]; [36],0
same,relative activity,[4]; [36],0.0
same,conversion rates of Phloretin,[4]; [37],0
same,relative activity,[4]; [37],0.0
